Reference: ChEMBL document CHEMBL1156372, “New halogenated marine prostanoids with cytotoxic activity from the Okinawan soft coral Clavularia viridis” (J Nat Prod, 2001)
Converted amounts (≈) assume the structure as drawn.

How the values were obtained:
Format in all cases: functional, cell-based
DLD-1 = experiment: Cytotoxicity against human DLD1 cells by MTT assay
MOLT-4 = experiment: Cytotoxicity against human MOLT4 cells by MTT assay
IMR-90 = experiment: Cytotoxicity against human IMR90 cells by MTT assay

In the case of `CCCCC/C=C\C[C@@]1(O)C=C(I)C(=O)[C@@H]1[C@H](/C=C\CCCC(=O)OC)OC(C)=O`, the IC50 (DLD-1) is reported as 0.6 µg/mL (≈ 1.13 µM), the IC50 (MOLT-4) is reported as 0.52 µg/mL (≈ 0.977 µM) and the IC50 (IMR-90) is reported as 4.5 µg/mL (≈ 8.45 µM).
